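Assay format: 96-well plates, 48-hour exposure. At the GI50, growth is halved.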 Active and inactive are the calls of the source. No stated cut-off is given here; in the data, active = GI50 up to about 1.1 µM and inactive = higher.
Assays:
Test in all cases: growth of human tumour cells (NCI), 48 h
SF-295 = test system: SF-295
MDA-MB-435 = test system: MDA-MB-435
M14 = test system: M14
SW-620 = test system: SW-620
KM12 = test system: KM12
SR = test system: SR
UACC-257 = test system: UACC-257
ACHN = test system: ACHN
A549 = test system: A549
SK-MEL-5 = test system: SK-MEL-5
NCI-H226 = test system: NCI-H226
Hs-578T = test system: Hs-578T
UO-31 = test system: UO-31
SK-MEL-28 = test system: SK-MEL-28
HCC 2998 = test system: HCC 2998
OVCAR-4 = test system: OVCAR-4
IGROV-1 = test system: IGROV-1
SNB-19 = test system: SNB-19
Malme-3M = test system: Malme-3M
T47D = test system: T47D

## c1ccc2c(c1)c1c3c(c4c(n32)=NCCN4)CCC1
SF-295
  GI50: 26.9 µM (inactive)
MDA-MB-435
  GI50: 29.7 µM (inactive)
M14
  GI50: 44.3 µM (inactive)
SW-620
  GI50: 28.5 µM (inactive)
KM12
  GI50: 27 µM (inactive)
SR
  GI50: 17.4 µM (inactive)
UACC-257
  GI50: 38.1 µM (inactive)
ACHN
  GI50: 40.9 µM (inactive)
A549
  GI50: 48.5 µM (inactive)
SK-MEL-5
  GI50: 32.4 µM (inactive)
NCI-H226
  GI50: 19.2 µM (inactive)
Hs-578T
  GI50: 26.5 µM (inactive)
UO-31
  GI50: 45.2 µM (inactive)
SK-MEL-28
  GI50: 55.3 µM (inactive)
HCC 2998
  GI50: 33.6 µM (inactive)
OVCAR-4
  GI50: 42.5 µM (inactive)
IGROV-1
  GI50: 27.4 µM (inactive)
SNB-19
  GI50: 89.9 µM (inactive)
Malme-3M
  GI50: 31.6 µM (inactive)
T47D
  GI50: 20.7 µM (inactive)

## O=C(Nn1cc(F)c(=O)[nH]c1=O)C12CC3CC(CC(C3)C1)C2
SF-295
  GI50: 26.6 µM (inactive)
MDA-MB-435
  GI50: 10 µM (inactive)
M14
  GI50: 15.1 µM (inactive)
SW-620
  GI50: 15.5 µM (inactive)
KM12
  GI50: 6.27 µM (inactive)
SR
  GI50: 4.05 µM (inactive)
UACC-257
  GI50: 22 µM (inactive)
ACHN
  GI50: 10.7 µM (inactive)
A549
  GI50: 6.27 µM (inactive)
SK-MEL-5
  GI50: 3.2 µM (inactive)
NCI-H226
  GI50: 38.9 µM (inactive)
Hs-578T
  GI50: 25.4 µM (inactive)
UO-31
  GI50: 8.2 µM (inactive)
SK-MEL-28
  GI50: 12.9 µM (inactive)
HCC 2998
  GI50: 0.646 µM (active)
OVCAR-4
  GI50: 10.2 µM (inactive)
IGROV-1
  GI50: 6.61 µM (inactive)
SNB-19
  GI50: 28.6 µM (inactive)
Malme-3M
  GI50: 6.73 µM (inactive)
T47D
  GI50: 20.2 µM (inactive)

## Cc1ccc(S(=O)(=O)N/N=C2/CCCOC2)cc1
SF-295
  GI50: > 100 µM (inactive)
MDA-MB-435
  GI50: > 100 µM (inactive)
M14
  GI50: > 100 µM (inactive)
SW-620
  GI50: > 100 µM (inactive)
KM12
  GI50: > 100 µM (inactive)
SR
  GI50: > 100 µM (inactive)
UACC-257
  GI50: > 100 µM (inactive)
ACHN
  GI50: > 100 µM (inactive)
A549
  GI50: > 100 µM (inactive)
SK-MEL-5
  GI50: > 100 µM (inactive)
NCI-H226
  GI50: > 100 µM (inactive)
Hs-578T
  GI50: > 100 µM (inactive)
UO-31
  GI50: > 100 µM (inactive)
SK-MEL-28
  GI50: > 100 µM (inactive)
HCC 2998
  GI50: > 100 µM (inactive)
OVCAR-4
  GI50: > 100 µM (inactive)
IGROV-1
  GI50: > 100 µM (inactive)
SNB-19
  GI50: > 100 µM (inactive)
Malme-3M
  GI50: > 100 µM (inactive)
T47D
  GI50: > 100 µM (inactive)

## c1ccc2c(c1)NC1(N3CCCCC3)CCCCC21 (stereo not given)
SF-295
  GI50: 45.4 µM (inactive)
MDA-MB-435
  GI50: 35.2 µM (inactive)
M14
  GI50: 55.3 µM (inactive)
SW-620
  GI50: 41.2 µM (inactive)
KM12
  GI50: 32.3 µM (inactive)
SR
  GI50: 32 µM (inactive)
UACC-257
  GI50: 47.3 µM (inactive)
ACHN
  GI50: 47.1 µM (inactive)
A549
  GI50: 30.5 µM (inactive)
SK-MEL-5
  GI50: 56.1 µM (inactive)
NCI-H226
  GI50: 52.4 µM (inactive)
Hs-578T
  GI50: 47.9 µM (inactive)
UO-31
  GI50: 51.9 µM (inactive)
SK-MEL-28
  GI50: 49.3 µM (inactive)
HCC 2998
  GI50: 76.4 µM (inactive)
OVCAR-4
  GI50: 56.4 µM (inactive)
IGROV-1
  GI50: 28.2 µM (inactive)
SNB-19
  GI50: 51.5 µM (inactive)
Malme-3M
  GI50: 58.2 µM (inactive)
T47D
  GI50: 20.9 µM (inactive)

## O/N=C1/CCCCC1NO (stereo not given)
SF-295
  GI50: > 100 µM (inactive)
MDA-MB-435
  GI50: > 100 µM (inactive)
M14
  GI50: > 100 µM (inactive)
SW-620
  GI50: > 100 µM (inactive)
KM12
  GI50: > 100 µM (inactive)
SR
  GI50: > 100 µM (inactive)
UACC-257
  GI50: > 100 µM (inactive)
ACHN
  GI50: > 100 µM (inactive)
A549
  GI50: > 100 µM (inactive)
SK-MEL-5
  GI50: > 100 µM (inactive)
NCI-H226
  GI50: > 100 µM (inactive)
Hs-578T
  GI50: > 100 µM (inactive)
UO-31
  GI50: > 100 µM (inactive)
SK-MEL-28
  GI50: > 100 µM (inactive)
HCC 2998
  GI50: > 100 µM (inactive)
OVCAR-4
  GI50: > 100 µM (inactive)
IGROV-1
  GI50: > 100 µM (inactive)
SNB-19
  GI50: > 100 µM (inactive)
Malme-3M
  GI50: > 100 µM (inactive)
T47D
  GI50: > 100 µM (inactive)

## CN1C(=O)CN(NC(=O)C2=C(O)c3ccc(Br)cc3S(=O)(=O)N2)C1=S
SF-295
  GI50: > 100 µM (inactive)
MDA-MB-435
  GI50: > 100 µM (inactive)
M14
  GI50: > 100 µM (inactive)
SW-620
  GI50: > 100 µM (inactive)
KM12
  GI50: 78.3 µM (inactive)
SR
  GI50: 46.1 µM (inactive)
UACC-257
  GI50: > 100 µM (inactive)
ACHN
  GI50: > 100 µM (inactive)
A549
  GI50: > 100 µM (inactive)
SK-MEL-5
  GI50: > 100 µM (inactive)
NCI-H226
  GI50: > 100 µM (inactive)
Hs-578T
  GI50: > 100 µM (inactive)
UO-31
  GI50: > 100 µM (inactive)
SK-MEL-28
  GI50: > 100 µM (inactive)
HCC 2998
  GI50: > 100 µM (inactive)
OVCAR-4
  GI50: > 100 µM (inactive)
IGROV-1
  GI50: > 100 µM (inactive)
SNB-19
  GI50: > 100 µM (inactive)
Malme-3M
  GI50: 33.4 µM (inactive)
T47D
  GI50: > 100 µM (inactive)

## Clc1ccc(/C(=C/c2ccccc2)Cn2ccnc2)cc1
SF-295
  GI50: 12.7 µM (inactive)
MDA-MB-435
  GI50: 19.9 µM (inactive)
M14
  GI50: 21.9 µM (inactive)
SW-620
  GI50: 27.6 µM (inactive)
KM12
  GI50: 13.2 µM (inactive)
SR
  GI50: 19.8 µM (inactive)
UACC-257
  GI50: 30.5 µM (inactive)
ACHN
  GI50: 16.6 µM (inactive)
A549
  GI50: 24.8 µM (inactive)
SK-MEL-5
  GI50: 11.1 µM (inactive)
NCI-H226
  GI50: 12.9 µM (inactive)
Hs-578T
  GI50: 44.5 µM (inactive)
UO-31
  GI50: 3.39 µM (inactive)
SK-MEL-28
  GI50: 30.1 µM (inactive)
HCC 2998
  GI50: 42.7 µM (inactive)
OVCAR-4
  GI50: 22.6 µM (inactive)
IGROV-1
  GI50: 17.9 µM (inactive)
SNB-19
  GI50: 12 µM (inactive)
Malme-3M
  GI50: 8.97 µM (inactive)
T47D
  GI50: 12 µM (inactive)

Source: ChEMBL document CHEMBL1201862, “PubChem BioAssay data set” (2004)
